Reference: US20260297542A1, “HERBICIDE RESISTANT PLANTS” (SYNGENTA CROP PROTECTION AG, priority 2023, published 2026)
Substitutions are numbered along the chain they refer to.

Tests used:
Test in all cases: E. coli hemG growth inhibition by herbicide, AtPPO1 variant
Format in all cases: cell-based
Details in all cases: read-out: percentage growth inhibition
[1] = molecular target: T1, AtPPO1 F207Y (Arabidopsis thaliana, UniProt P55826, F207Y)
T1 construct: expressed in transfected cells; host or cells: E. coli BL21(DE3) hemG (hemG replaced by CmR), pET24a plasmid
T1 sequence (P55826 35-537 F207Y): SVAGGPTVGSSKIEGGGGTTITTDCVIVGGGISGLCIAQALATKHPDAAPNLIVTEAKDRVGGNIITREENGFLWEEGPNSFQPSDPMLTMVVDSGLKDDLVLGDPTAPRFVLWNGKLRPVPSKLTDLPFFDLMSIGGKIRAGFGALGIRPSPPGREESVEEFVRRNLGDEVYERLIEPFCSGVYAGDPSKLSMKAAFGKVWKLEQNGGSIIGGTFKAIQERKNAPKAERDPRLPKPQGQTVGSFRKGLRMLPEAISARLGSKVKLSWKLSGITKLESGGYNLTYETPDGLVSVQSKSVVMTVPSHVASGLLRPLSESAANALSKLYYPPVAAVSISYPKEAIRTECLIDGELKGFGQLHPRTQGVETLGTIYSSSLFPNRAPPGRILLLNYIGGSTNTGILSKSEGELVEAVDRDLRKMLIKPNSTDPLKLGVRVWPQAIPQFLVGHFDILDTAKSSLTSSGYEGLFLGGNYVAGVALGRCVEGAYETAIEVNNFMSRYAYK
Outline: (§1)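 Read-out is OD600 at 24 h post inoculation, converted to percent growth inhibition relative to DMSO. The hemG-deleted BL21(DE3) host relied on the plasmid-borne AtPPO1 variant, induced with 0.1 mM IPTG, with 6.25 ppm herbicide 0 or E or 0.78 ppm herbicide B present at 37° C.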

[2] = molecular target: T2, AtPPO1 K281N (Arabidopsis thaliana, UniProt P55826, K281N)
T2 construct: expressed in transfected cells; host or cells: E. coli BL21(DE3) hemG (hemG replaced by CmR), pET24a plasmid
T2 sequence (P55826 35-537 K281N): T1 sequence (P55826 35-537 F207Y) with Y173F, K247N
Outline: as §1

[3] = molecular target: T3, AtPPO1 V206G (Arabidopsis thaliana, UniProt P55826, V206G)
T3 construct: expressed in transfected cells; host or cells: E. coli BL21(DE3) hemG (hemG replaced by CmR), pET24a plasmid
T3 sequence (P55826 35-537 V206G): T1 sequence (P55826 35-537 F207Y) with V172G, Y173F
Outline: as §1

[4] = molecular target: T4, AtPPO1 Y362F (Arabidopsis thaliana, UniProt P55826, Y362F)
T4 construct: expressed in transfected cells; host or cells: E. coli BL21(DE3) hemG (pET24a, T7 promoter)
T4 sequence (P55826 35-537 Y362F): T1 sequence (P55826 35-537 F207Y) with Y173F, Y328F
Outline: as §1

Row | Compound | inhibition at 0.78 ppm [1] | inhibition at 0.78 ppm [2] | inhibition at 0.78 ppm [3] | inhibition at 0.78 ppm [4] | inhibition at 6.25 ppm [1] | inhibition at 6.25 ppm [2] | inhibition at 6.25 ppm [3] | inhibition at 6.25 ppm [4]
1 | C#CCN1C(=O)C(F)(F)Oc2cc(F)c(-n3c(=O)n(C)c(=S)n(C)c3=O)cc21 [Herbicide B, trifludimoxazin] | 29% | 39% | 32% | 34% | – | – | – | –
2 | CCOC(=O)[C@]1(C)CC(c2cc(-n3c(=O)n(C)c(=S)n(C)c3=O)c(F)cc2Cl)=NO1 [Herbicide D, ethyl (5S)-3-[2-chloro-5-(3,5-dimethyl-2,6-dioxo-4-thioxo-1,3,5-triazinan-1-yl)-4-fluoro-phenyl]-5-methyl-4H-isoxazole-5-carboxylate] | – | – | – | – | 19% | 37% | 19% | 13%
3 | CC(C)N(C)S(=O)(=O)NC(=O)c1cc(-n2c(=O)cc(C(F)(F)F)n(C)c2=O)c(F)cc1Cl [Herbicide E, saflufenacil] | – | – | – | – | 66% | 56% | 58% | 43%
